Laboratory results published in ChEMBL document CHEMBL1201862, “PubChem BioAssay data set” (2004).
Activity calls are given as the source filed them.

How the values were obtained:
cells = assay type: functional
[1] = THP-1 cell cytotoxicity, dose response, cytotoxicity control for non-replicating M. tuberculosis project (AID 489025); assay type: functional
[2] = Counterscreen for AddAB inhibitors: absorbance-based bacterial cell-based high throughput dose response assay for inhibitors of bacterial viability. [Related pubchem assays (depositor defined):AID435030, AID449728, AID449731, AID488942, AID488955, AID488956]; assay type: functional
[3] = biological target: Heat shock protein HSP 90-alpha (Homo sapiens, UniProt P07900); assay type: functional, organism-based
[4] = Vero E6 cell cytotoxicity, dose response, cytotoxicity control for non-replicating M. tuberculosis project, secondary assay (AID 492998); assay type: functional, VeroE6; settings: Vero C1008
Exodeoxyribonuclease V = Exodeoxyribonuclease V (Escherichia coli (strain K12), UniProt P04993+P07648+P08394); experiment: RecBCD inhibition via phage-restricted bacterial growth – absorbance, V66 E. coli, mutant T4 phage, counter-screen for AddAB inhibitor project, dose response (AID 492957); assay type: functional, cell-based, Escherichia coli str. K-12 substr. MG1655
[5] = Luminescence Cell-Based Dose Retest to Confirm Inhibitors of Cancer Stem Cells. [Related pubchem assays (depositor defined):AID2717, AID2721]; assay type: functional; settings: Homo sapiens
[6] = HepG2 cell cytotoxicity, dose response, cytotoxicity control for non-replicating M. tuberculosis project (AID 489018); assay type: functional; settings: Mycobacterium tuberculosis
[7] = biological target: T1, Rac GTPase-activating protein 1 (Homo sapiens, UniProt Q9H0H5); experiment: blockers of MgcRacGAP-driven Rac1 GTP hydrolysis – biochemical, ADP Hunter fluorescence, primary and confirmatory, confirmation (AID 624330); assay type: functional
T1 sequence (Q9H0H5 whole entry): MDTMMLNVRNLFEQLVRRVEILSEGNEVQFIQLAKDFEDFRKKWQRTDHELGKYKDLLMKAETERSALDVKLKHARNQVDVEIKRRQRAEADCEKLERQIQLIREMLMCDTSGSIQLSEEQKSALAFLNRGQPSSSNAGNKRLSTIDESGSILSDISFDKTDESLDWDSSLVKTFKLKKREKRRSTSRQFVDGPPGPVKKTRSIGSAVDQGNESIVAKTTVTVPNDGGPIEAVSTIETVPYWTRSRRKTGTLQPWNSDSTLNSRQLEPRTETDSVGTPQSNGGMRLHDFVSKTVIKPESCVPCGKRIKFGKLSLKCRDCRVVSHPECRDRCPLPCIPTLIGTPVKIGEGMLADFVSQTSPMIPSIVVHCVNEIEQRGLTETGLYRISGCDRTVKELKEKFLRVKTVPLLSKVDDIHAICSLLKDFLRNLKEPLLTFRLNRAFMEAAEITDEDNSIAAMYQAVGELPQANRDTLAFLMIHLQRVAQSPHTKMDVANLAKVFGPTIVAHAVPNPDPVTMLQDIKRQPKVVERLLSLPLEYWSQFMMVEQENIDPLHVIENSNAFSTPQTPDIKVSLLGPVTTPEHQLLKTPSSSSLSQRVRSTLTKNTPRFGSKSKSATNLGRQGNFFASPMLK

[8] = viability loss in HeLa cells – cytotoxicity control for MgcRacGAP inhibitor project, dose response (AID 624300); assay type: functional
[9] = rescue of ΔF508 CFTR function, airway epithelium – human bronchial epithelial cells, plate reader, cherry-pick, two tests, dose response (AID 743267); assay type: functional, cell-based
Hexokinase HKDC1 = biological target: T2, Hexokinase HKDC1 (Homo sapiens, UniProt Q2TB90); experiment: activation of HKDC1 glucose phosphorylation – biochemical, W721R variant, dose response (AID 504730); assay type: functional
T2 sequence (Q2TB90 whole entry): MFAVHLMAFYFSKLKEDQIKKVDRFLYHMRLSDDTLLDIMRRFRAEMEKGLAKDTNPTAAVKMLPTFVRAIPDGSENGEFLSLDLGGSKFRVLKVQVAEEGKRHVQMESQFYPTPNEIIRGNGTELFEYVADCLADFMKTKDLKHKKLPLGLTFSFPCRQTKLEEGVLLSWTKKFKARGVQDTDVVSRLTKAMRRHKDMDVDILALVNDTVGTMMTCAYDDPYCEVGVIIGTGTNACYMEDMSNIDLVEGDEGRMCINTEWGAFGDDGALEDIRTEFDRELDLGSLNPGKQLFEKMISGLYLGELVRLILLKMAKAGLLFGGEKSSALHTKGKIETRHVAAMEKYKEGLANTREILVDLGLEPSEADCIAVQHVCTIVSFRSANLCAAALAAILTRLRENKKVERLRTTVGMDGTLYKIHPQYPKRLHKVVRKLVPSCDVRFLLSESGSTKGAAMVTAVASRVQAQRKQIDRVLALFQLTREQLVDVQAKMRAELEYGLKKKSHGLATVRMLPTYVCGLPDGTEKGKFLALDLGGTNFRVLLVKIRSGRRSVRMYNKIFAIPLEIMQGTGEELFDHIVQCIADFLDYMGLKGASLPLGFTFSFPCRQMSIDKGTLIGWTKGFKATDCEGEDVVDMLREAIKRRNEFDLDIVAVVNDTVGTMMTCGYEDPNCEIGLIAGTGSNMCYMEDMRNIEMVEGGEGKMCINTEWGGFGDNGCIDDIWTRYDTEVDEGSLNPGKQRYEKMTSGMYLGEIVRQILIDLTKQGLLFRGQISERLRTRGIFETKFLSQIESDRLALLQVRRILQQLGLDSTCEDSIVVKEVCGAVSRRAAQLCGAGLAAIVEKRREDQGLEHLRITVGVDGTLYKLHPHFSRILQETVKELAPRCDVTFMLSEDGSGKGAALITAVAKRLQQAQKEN

[10] = biological target: T3, DNA repair protein RAD52 homolog (Homo sapiens, UniProt P43351); assay type: functional, biochemical
T3 sequence (P43351 whole entry): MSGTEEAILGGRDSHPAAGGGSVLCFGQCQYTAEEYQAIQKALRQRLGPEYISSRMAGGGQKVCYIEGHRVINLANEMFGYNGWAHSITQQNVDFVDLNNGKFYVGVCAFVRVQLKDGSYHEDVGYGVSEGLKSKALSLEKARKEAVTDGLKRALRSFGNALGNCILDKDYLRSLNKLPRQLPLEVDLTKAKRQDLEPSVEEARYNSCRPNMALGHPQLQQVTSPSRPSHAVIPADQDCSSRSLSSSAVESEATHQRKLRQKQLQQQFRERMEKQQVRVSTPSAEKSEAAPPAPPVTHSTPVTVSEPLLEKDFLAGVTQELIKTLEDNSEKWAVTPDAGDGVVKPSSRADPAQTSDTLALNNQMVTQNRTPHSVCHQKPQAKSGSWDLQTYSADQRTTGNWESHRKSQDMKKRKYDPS

[11] = biological target: T4, Delta-type opioid receptor (Homo sapiens, UniProt P41143); experiment: delta opioid receptor blockers – image-based, SAR follow-up (AID 2357); assay type: functional
T4 sequence (P41143 whole entry): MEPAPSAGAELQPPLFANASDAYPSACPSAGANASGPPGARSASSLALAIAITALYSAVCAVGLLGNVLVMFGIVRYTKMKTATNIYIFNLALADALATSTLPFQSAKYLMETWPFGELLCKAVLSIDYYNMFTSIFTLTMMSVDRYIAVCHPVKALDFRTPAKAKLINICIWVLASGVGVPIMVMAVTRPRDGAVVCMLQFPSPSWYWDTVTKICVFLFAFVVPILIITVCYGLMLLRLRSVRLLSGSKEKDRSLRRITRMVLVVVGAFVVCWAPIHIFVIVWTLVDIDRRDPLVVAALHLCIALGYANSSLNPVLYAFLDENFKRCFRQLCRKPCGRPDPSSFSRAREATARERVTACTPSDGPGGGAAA

[12] = biological target: T5, Kappa-type opioid receptor (Homo sapiens, UniProt P41145); experiment: kappa opioid receptor blockers, image-based, SAR follow-up (AID 2348); assay type: functional
T5 sequence (P41145 whole entry): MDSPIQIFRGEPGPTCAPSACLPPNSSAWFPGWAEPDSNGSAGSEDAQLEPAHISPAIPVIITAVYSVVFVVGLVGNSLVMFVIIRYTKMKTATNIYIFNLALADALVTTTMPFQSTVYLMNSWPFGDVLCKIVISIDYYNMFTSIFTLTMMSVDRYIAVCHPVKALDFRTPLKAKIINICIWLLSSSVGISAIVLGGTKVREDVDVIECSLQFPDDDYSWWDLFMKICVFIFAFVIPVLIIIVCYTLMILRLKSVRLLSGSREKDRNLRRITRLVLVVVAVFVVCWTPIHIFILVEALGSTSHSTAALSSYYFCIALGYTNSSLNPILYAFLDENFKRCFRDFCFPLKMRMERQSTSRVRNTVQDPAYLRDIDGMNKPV

Mu-type opioid receptor [13] = biological target: T6, Mu-type opioid receptor (Homo sapiens, UniProt P35372); experiment: mu opioid receptor activators, image-based, SAR follow-up (AID 2352); assay type: functional
T6 sequence (P35372 whole entry): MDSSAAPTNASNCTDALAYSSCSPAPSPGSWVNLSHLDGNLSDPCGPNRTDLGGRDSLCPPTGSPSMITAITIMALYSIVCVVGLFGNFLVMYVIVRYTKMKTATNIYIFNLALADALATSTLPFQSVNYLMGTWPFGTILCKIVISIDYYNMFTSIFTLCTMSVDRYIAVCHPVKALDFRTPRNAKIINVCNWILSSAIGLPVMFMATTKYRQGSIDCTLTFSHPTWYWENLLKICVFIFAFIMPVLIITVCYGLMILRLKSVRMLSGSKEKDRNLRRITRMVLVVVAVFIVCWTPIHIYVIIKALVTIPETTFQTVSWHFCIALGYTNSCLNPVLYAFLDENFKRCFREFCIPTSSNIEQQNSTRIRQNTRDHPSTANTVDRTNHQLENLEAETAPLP

[14] = biological target: T4, Delta-type opioid receptor; experiment: DOR agonists, SAR follow-up, image-based (AID 2370); assay type: functional
Mu-type opioid receptor [15] = biological target: T6, Mu-type opioid receptor; experiment: mu opioid receptor blockers – image-based, SAR follow-up (AID 2420); assay type: functional;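 note: compounds added before stimulation of receptor with agonist DAMGO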
[16] = biological target: T5, Kappa-type opioid receptor; experiment: kappa opioid receptor activation potency – imaging, image-based, SAR follow-up (AID 2359); assay type: functional
[17] = biological target: T5, Kappa-type opioid receptor; experiment: kappa opioid receptor blockers, cell-based, luminescence, beta-arrestin, SAR follow-up (AID 2285); assay type: functional
[18] = biological target: Lysine-specific demethylase 4A (Homo sapiens, UniProt O75164); experiment: inhibition of JMJD2A H3K9me3 demethylation – biochemical, DELFIA europium, cherry-picked samples, selectivity assay for GASC-1 inhibitor project, dose response (AID 488840)
Lysine-specific demethylase 4A, sequence (O75164 whole entry): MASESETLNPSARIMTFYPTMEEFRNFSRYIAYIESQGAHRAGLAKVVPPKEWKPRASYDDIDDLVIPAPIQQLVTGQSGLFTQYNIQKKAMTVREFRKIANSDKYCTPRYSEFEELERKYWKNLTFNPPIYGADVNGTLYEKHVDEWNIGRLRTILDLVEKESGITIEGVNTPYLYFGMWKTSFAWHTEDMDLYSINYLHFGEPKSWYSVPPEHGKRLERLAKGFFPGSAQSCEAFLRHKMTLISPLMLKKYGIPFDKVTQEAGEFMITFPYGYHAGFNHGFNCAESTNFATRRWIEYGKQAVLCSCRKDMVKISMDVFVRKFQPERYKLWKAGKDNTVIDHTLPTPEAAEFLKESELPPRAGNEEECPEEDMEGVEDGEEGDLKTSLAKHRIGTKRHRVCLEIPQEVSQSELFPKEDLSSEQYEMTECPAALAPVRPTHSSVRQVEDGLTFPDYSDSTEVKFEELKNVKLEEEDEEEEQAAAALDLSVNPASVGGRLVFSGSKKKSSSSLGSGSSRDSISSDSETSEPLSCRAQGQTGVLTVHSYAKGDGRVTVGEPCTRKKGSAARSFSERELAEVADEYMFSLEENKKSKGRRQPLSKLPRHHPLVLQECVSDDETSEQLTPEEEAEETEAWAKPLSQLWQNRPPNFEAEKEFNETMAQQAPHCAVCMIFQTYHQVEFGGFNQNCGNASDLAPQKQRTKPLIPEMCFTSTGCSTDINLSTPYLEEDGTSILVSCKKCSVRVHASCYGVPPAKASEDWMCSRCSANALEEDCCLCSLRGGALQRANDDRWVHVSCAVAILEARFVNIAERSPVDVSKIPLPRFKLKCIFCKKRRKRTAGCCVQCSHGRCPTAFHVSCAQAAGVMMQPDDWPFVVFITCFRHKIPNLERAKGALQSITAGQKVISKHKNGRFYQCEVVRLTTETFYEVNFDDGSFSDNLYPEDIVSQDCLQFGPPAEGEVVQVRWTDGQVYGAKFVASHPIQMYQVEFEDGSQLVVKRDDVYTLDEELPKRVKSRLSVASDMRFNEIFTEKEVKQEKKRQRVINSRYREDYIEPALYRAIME

[19] = biological target: T7, Mannose-6-phosphate isomerase (Homo sapiens, UniProt P34949); experiment: MPI inhibition at elevated mannose 6-phosphate – biochemical, fluorescence intensity, high mannose 6-phosphate, primary screen (AID 1220)
T7 sequence (P34949 whole entry): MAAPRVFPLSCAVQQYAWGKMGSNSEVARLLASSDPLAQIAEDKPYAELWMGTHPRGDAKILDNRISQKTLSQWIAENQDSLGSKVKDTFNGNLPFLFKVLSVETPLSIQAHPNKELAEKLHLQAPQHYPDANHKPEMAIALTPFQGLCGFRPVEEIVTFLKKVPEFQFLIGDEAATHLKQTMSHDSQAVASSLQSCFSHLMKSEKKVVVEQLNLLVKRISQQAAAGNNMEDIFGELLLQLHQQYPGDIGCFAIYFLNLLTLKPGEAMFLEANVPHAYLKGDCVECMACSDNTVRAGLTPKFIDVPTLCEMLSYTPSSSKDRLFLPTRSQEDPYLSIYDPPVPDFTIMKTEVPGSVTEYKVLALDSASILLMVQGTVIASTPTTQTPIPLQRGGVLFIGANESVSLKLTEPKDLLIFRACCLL

[20] = biological target: Lysine-specific demethylase 4C (Homo sapiens, UniProt Q9H3R0); experiment: inhibition of JMJD2C H3K9me3 demethylation – biochemical, DELFIA europium, cherry-picked samples, dose response (AID 488835); assay type: functional
Lysine-specific demethylase 4C, sequence (Q9H3R0 whole entry): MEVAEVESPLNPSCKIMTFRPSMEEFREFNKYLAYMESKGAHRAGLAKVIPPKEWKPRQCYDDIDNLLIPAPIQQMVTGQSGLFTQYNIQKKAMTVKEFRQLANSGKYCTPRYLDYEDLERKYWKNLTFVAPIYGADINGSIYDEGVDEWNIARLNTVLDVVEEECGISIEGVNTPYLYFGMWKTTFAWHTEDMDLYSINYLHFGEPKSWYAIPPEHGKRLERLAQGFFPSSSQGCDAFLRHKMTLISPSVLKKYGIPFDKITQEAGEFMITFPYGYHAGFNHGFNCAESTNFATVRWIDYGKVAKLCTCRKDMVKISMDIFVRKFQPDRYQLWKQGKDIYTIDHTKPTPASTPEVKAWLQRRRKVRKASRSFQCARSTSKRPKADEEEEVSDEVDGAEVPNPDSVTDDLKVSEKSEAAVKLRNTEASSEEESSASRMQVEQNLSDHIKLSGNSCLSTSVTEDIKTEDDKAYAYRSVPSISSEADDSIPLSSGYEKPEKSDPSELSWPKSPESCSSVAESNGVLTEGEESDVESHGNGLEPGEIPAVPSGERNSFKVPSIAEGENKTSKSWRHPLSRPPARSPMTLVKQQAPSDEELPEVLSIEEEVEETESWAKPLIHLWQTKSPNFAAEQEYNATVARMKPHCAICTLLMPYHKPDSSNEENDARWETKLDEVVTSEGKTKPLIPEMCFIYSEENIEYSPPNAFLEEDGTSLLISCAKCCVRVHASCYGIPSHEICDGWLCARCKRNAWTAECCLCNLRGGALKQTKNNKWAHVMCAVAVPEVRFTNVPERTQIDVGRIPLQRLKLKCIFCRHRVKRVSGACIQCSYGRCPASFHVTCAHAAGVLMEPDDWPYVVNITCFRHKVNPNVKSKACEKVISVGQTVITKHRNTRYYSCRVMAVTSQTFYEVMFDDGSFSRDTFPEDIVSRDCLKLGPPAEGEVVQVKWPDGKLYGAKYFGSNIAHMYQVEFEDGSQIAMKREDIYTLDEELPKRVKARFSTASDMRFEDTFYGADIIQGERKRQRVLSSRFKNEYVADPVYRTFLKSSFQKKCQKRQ

[21] = biological target: T8, Tyrosine-protein phosphatase non-receptor type 7 (Homo sapiens, UniProt P35236); experiment: inhibition of hematopoietic tyrosine phosphatase HePTP – biochemical, set 2, SAR follow-up (AID 449736); assay type: functional
T8 sequence (P35236 whole entry): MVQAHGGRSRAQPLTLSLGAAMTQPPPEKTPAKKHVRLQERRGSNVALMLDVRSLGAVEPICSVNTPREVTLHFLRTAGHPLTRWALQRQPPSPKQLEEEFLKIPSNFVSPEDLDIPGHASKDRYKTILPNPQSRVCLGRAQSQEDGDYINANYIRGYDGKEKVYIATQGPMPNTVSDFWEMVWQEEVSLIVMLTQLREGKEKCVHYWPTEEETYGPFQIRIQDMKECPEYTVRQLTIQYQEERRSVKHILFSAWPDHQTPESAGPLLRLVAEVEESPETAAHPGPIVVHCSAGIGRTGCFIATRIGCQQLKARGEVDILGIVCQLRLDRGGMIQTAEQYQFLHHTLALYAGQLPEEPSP

[22] = biological target: T9, Polyadenylate-binding protein 1 (Homo sapiens, UniProt P11940); experiment: MLLE binding blockers, Cy5 peptide tracer – biochemical, fluorescence polarization, Cy5-PAM2 peptide, secondary, miRNA deadenylation inhibitor project, dose response (AID 602260); assay type: functional; settings: read-out: IC50_Mean
T9 sequence (P11940 whole entry): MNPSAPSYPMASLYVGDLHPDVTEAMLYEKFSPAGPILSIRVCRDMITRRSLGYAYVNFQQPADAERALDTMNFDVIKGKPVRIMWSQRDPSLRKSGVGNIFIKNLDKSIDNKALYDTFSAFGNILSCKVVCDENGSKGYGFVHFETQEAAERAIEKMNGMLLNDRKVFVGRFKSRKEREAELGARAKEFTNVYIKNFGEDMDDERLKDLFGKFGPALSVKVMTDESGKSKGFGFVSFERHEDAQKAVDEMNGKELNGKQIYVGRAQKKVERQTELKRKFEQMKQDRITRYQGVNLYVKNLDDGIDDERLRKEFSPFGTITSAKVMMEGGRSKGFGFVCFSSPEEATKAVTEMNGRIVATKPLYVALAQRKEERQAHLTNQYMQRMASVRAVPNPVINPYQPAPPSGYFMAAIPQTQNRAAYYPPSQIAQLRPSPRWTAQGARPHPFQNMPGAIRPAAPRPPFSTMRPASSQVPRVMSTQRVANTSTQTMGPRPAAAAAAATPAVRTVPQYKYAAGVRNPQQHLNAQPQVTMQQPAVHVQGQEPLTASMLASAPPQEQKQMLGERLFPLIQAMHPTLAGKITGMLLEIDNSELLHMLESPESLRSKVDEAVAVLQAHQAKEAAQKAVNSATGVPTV

[23] = biological target: T10, G-protein coupled receptor 55 (Homo sapiens, UniProt Q9Y2T6); experiment: selective activators of receptor GPR55 – imaging, U2OS cells, beta-arrestin-GFP redistribution, primary screen (AID 1961); assay type: functional
T10 sequence (Q9Y2T6 whole entry): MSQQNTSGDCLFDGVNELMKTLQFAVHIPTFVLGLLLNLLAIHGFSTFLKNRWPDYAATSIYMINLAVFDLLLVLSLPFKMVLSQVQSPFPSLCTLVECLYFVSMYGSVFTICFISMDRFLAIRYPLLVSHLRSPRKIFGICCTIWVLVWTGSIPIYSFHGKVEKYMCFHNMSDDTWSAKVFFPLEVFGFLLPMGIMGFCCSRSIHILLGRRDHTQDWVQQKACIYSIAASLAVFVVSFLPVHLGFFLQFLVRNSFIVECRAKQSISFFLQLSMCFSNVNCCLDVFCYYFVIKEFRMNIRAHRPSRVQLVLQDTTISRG

[24] = biological target: T10, G-protein coupled receptor 55; experiment: SAR analysis of selective Agonists of GPR55 using an Image-Based Assay. [Related pubchem assays (depositor defined):AID1961, AID1965]; assay type: functional
Cannabinoid receptor 2 [25] = biological target: T11, Cannabinoid receptor 2 (Homo sapiens, UniProt P34972); experiment: SAR analysis of agonists of the Cannabinoid Receptor 2 using an Image-Based Assay - Set 2. [Related pubchem assays (depositor defined):AID1961, AID1965]; assay type: functional
T11 sequence (P34972 whole entry): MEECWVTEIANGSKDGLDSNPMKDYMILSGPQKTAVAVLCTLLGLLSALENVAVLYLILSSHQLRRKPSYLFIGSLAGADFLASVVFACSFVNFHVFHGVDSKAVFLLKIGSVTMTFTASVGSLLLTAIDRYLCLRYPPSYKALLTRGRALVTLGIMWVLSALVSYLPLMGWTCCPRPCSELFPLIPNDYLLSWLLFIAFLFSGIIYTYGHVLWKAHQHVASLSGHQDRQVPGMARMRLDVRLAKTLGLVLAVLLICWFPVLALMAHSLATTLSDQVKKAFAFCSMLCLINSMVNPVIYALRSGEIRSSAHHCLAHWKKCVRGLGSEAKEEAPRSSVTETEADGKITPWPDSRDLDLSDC

[26] = biological target: Dual specificity protein phosphatase 3 (Homo sapiens, UniProt P51452); experiment: SAR VHR1 Fluorescent Assay for In Vitro dose response studies Set 2. [Related pubchem assays (depositor defined):AID1654, AID1661, AID1878]; assay type: functional
Dual specificity protein phosphatase 3, sequence (P51452 whole entry, the tested form may be a part): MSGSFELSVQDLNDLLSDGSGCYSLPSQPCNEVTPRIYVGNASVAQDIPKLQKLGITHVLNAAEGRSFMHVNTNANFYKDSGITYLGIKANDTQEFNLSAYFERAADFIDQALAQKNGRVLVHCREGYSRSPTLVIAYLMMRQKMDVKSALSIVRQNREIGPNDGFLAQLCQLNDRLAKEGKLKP

[27] = biological target: T9, Polyadenylate-binding protein 1; experiment: MLLE domain peptide-binding blockers, IC50 – biochemical, fluorescence polarization, FITC-PAM2 peptide, dose response (AID 602259); assay type: functional; settings: read-out: IC50_Mean
[28] = biological target: T8, Tyrosine-protein phosphatase non-receptor type 7; experiment: SAR analysis of chemical inhibitors of HePTP using a Fluorescent assay - Set 2. [Related pubchem assays (depositor defined):AID1059, AID1077, AID1661, AID2085, AID521]; assay type: functional
Cannabinoid receptor 1 = Cannabinoid receptor 1 (Homo sapiens, UniProt P21554); experiment: SAR analysis of antagonists of the Cannabinoid Receptor 1 using an Image-Based Assay. [Related pubchem assays (depositor defined):AID1961, AID1965]; assay type: functional
Cannabinoid receptor 2 [29] = biological target: T11, Cannabinoid receptor 2; experiment: SAR analysis of antagonists of the Cannabinoid Receptor 2 using an Image-Based Assay - Set 2. [Related pubchem assays (depositor defined):AID1961, AID1965]; assay type: functional

O=C(Nc1nc(-c2cccs2)cs1)c1ccc([N+](=O)[O-])o1
active: IC50 (cells) 0.61 µM | CC50 [1] 9.67 µM | AC50 [3] 2.32 µM | CC50 [4] > 20 µM | AC50 [5] 1.52 µM | CC50 [6] 9.45 µM
inactive: IC50 [2] > 118 µM | IC50 (Exodeoxyribonuclease V) > 118 µM

Cc1ccc2c(C)c3ccc4ccccc4c3c[n+]2c1.[O-][Cl+3]([O-])([O-])[O-]
active: IC50 [7] 48 µM | CC50 [8] 78.8 µM | AC50 [9] 1.06 µM | EC50 (Hexokinase HKDC1) 14.2 µM | AC50 [10] 1.34 µM

Cc1ccc(C)c(NC(S)=NC(NC(=O)OCc2ccccc2)C(Cl)(Cl)Cl)c1 (stereo not drawn)
inactive: IC50 [11] > 32 µM | EC50 (Mu-type opioid receptor [13]) > 32 µM | EC50 [14] > 32 µM | IC50 (Mu-type opioid receptor [15]) > 32 µM | EC50 [16] > 32 µM
active: IC50 [12] 1.53 µM | IC50 [17] 6.2 µM

Cc1ccc2[nH]c(=O)c(C=C3C(=O)NC(=O)NC3=O)cc2c1
> 50 µM (not active): IC50 [19]
active: AC50 [18] 26.9 µM | AC50 [20] 46.5 µM

COc1ccc(Cl)cc1-n1c(N)c(C(=O)N2CCOCC2)sc1=S
inactive: IC50 [21] > 100 µM

CC(C)NS(=O)(=O)c1ccc(NC(=S)NC(=O)c2ccc(-c3ccccc3)cc2)cc1
inactive: IC50 [22] > 66 µM | EC50 (Cannabinoid receptor 2 [25]) > 32 µM | IC50 [26] > 100 µM | IC50 [27] > 66 µM | IC50 [28] > 100 µM | IC50 (Cannabinoid receptor 1) > 32 µM | IC50 (Cannabinoid receptor 2 [29]) > 32 µM
active: EC50 [23] 0.544 µM | EC50 [24] 0.354 µM
